The target of test [1] is GSPT1 protein (Homo sapiens (Human), UniProt P15170+Q96SW2). Description: Western-blot assay of substrate protein degradation in hPBMC, GSPT1. It counts as cell-based. The following applies: hPBMC cells, compound 500 nM, 24 hours, Western blot. Background: A western blot detects proteins with antibodies after separation by electrophoresis.
Test [2] concerns the target IKZF3 protein (Homo sapiens (Human), UniProt Q96SW2+Q9UKT9). Description: Western-blot assay of substrate protein degradation in hPBMC, IKZF3. The test is classed as cell-based. Particulars: hPBMC cells, compound 500 nM, 24 hours, Western blot.
The target of test [3] is human Cereblon WT GST-tagged protein (Homo sapiens (Human), UniProt Q96SW2). Description: CRBN-binding affinity, HTRF (CEREBLON BINDING kit). Put shortly:
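HTRF competition readout: compounds compete with a thalidomide-Re conjugate for GST-tagged wild-type human CRBN detected via Eu-labelled anti-GST antibody. Inhibition rate derived relative to protein-free blank wells.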

Test [4] has as its target IKZF1 protein (Homo sapiens (Human), UniProt Q13422+Q96SW2). Description: Western-blot assay of substrate protein degradation in hPBMC, IKZF1. The following applies: hPBMC cells, compound 500 nM, 24 hours, Western blot. The test is classed as cell-based.

From patent US20260028326A1, “COMPOUND BASED ON ISOINDOLINE-SUBSTITUTED GLUTARIMIDE BACKBONE AND USE THEREOF” (GLUETACS THERAPEUTICS (SHANGHAI) CO., LTD., priority 2022, published 2026) come the findings set out here.

SMILES strings stand for the structures. Values joined by “and” are separate entries in the source; they are usually repeats but may differ in a detail not shown here. Equal entries are not always repeated.

GSPT1 protein, sequence (P15170 whole entry): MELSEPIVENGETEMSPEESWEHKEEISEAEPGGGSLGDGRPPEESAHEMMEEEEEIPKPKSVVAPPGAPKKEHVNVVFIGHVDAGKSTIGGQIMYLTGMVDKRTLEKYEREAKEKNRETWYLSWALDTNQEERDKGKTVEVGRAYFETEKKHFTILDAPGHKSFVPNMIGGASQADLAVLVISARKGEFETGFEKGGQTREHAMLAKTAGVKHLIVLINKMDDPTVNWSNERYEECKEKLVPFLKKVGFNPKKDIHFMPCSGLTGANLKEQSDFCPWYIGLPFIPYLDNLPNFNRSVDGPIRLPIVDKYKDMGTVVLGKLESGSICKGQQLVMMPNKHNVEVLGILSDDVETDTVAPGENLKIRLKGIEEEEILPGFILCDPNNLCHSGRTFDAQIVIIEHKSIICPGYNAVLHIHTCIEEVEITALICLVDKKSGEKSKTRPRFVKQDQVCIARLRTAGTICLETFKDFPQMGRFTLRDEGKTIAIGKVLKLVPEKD
GSPT1 protein, sequence (Q96SW2 whole entry): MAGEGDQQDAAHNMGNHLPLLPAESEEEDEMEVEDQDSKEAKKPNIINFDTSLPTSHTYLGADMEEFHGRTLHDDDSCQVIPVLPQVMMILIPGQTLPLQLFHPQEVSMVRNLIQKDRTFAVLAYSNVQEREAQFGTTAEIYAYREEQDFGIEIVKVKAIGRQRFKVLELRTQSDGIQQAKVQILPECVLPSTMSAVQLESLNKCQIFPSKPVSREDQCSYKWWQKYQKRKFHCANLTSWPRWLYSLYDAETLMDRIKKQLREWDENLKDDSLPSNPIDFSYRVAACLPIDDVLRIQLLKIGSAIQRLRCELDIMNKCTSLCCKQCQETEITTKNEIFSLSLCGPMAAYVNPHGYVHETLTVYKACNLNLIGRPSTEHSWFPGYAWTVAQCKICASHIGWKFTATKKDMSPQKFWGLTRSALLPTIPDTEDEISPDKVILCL
GSPT1 protein, sequence (Q16531 whole entry partner): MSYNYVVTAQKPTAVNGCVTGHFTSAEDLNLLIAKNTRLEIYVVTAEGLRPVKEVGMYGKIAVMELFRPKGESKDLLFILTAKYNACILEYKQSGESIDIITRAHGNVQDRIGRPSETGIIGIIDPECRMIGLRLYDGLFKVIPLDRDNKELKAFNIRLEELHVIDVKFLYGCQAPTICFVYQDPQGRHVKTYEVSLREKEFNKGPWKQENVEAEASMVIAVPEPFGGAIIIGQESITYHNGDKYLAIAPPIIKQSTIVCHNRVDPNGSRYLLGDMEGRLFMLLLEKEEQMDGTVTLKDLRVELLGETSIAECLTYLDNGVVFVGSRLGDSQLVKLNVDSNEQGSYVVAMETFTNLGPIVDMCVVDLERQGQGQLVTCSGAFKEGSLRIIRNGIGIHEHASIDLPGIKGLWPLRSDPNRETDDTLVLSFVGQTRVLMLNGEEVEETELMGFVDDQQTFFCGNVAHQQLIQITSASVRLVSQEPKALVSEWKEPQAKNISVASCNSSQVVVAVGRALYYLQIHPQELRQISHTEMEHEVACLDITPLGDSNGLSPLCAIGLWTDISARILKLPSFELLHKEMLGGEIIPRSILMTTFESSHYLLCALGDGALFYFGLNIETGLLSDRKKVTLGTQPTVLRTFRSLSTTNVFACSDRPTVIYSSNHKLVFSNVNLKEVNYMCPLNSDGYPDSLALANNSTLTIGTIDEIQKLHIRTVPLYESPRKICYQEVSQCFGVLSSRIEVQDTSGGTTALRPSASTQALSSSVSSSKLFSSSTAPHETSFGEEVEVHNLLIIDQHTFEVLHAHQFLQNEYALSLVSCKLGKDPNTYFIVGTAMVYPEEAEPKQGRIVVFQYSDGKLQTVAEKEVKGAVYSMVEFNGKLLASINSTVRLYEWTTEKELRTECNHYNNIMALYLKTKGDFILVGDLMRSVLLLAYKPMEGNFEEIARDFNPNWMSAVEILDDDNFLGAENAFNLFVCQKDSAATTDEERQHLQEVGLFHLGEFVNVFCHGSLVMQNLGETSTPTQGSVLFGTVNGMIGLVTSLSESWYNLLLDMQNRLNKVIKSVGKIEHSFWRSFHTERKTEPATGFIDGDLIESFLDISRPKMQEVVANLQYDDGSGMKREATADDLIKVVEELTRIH
IKZF3 protein, sequence (Q9UKT9 whole entry): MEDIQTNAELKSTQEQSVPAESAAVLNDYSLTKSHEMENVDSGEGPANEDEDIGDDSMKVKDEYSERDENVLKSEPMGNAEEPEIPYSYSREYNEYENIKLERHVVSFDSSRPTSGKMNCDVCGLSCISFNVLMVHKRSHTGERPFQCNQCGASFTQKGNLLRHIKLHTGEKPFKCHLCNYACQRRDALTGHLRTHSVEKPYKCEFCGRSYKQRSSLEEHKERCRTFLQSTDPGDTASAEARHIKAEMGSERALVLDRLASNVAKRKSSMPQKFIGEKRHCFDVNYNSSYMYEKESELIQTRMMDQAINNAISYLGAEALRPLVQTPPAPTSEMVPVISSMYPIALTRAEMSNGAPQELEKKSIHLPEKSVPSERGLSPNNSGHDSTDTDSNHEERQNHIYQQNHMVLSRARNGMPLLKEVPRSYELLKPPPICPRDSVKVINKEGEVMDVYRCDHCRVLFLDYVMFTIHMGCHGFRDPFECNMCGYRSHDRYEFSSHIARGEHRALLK
IKZF3 protein, sequence (Q96SW2 whole entry): as the sequence (Q96SW2 whole entry) above
IKZF3 protein, sequence (Q16531 whole entry partner): as the sequence (Q16531 whole entry partner) above
IKZF1 protein, sequence (Q13422 whole entry): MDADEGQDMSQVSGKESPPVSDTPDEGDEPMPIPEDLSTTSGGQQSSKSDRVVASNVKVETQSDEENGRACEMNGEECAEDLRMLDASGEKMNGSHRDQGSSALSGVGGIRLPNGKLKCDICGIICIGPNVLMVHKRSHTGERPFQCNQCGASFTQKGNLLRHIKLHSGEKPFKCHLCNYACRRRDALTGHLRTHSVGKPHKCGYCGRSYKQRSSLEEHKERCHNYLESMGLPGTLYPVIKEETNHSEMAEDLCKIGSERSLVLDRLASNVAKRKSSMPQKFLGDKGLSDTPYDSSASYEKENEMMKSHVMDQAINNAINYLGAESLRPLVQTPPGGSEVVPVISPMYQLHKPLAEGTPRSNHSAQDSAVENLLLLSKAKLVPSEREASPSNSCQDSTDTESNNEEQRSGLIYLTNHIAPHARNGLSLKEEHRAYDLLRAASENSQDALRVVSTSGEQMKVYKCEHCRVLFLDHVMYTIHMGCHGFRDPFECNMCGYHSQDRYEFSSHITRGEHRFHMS
IKZF1 protein, sequence (Q96SW2 whole entry): as the sequence (Q96SW2 whole entry) above
IKZF1 protein, sequence (Q16531 whole entry partner): as the sequence (Q16531 whole entry partner) above
human Cereblon WT GST-tagged protein, sequence (Q96SW2 whole entry): as the sequence (Q96SW2 whole entry) above

`CC1(C)CCC(CN2CC3CCC2CN3Cc2ccc3c(c2)CN(C2CCC(=O)NC2=O)C3=O)=C(c2ccc(F)cc2)C1` (centres unmarked) [GT-05512, 3-(5-((5-((4′-fluoro-5,5-dimethyl-3,4,5,6-tetrahydro-[1,1′-biphenyl]-2-yl)methyl)-2,5-diazabicyclo[2.2.2]octan-2-yl)methyl)-1-oxoisoindolin-2-yl)piperidine-2,6-dione]: the “residual substrate protein level, GSPT1” value in test [1] is on record as “A (A represents a residual substrate protein level of <50%)”. The “residual substrate protein level, IKZF3” value in test [2] is “B (B represents a residual substrate protein level of >50%)”. The molecule further displayed an IC50 in test [3] of 570 nM. In addition, the “residual substrate protein level, IKZF1” value in test [4] was “B (B represents a residual substrate protein level of >50%)”.
Turning to `CC1(C)CCC(C(=O)N2C3CC2CN(Cc2ccc4c(c2)CN(C2CCC(=O)NC2=O)C4=O)C3)=C(c2ccc(F)cc2)C1` (centres unmarked) [GT-05515, 3-(5-((6-(4′-fluoro-5,5-dimethyl-3,4,5,6-tetrahydro-[1,1′-biphenyl]-2-carbonyl)-3,6-diazabicyclo[3.1.1]heptan-3-yl)methyl)-1-oxoisoindolin-2-yl)piperidine-2,6-dione], in test [1], the “residual substrate protein level, GSPT1” value was “A (A represents a residual substrate protein level of <50%)”. Further, the “residual substrate protein level, IKZF3” value in test [2] is on record as “B (B represents a residual substrate protein level of >50%)”. Further, in test [3], the IC50 worked out at 1010 nM. The “residual substrate protein level, IKZF1” value in test [4] is “B (B represents a residual substrate protein level of >50%)”.
Regarding `O=C1CCC(N2Cc3cc(CN4CCN(Cc5ccccc5-c5ccc(F)cc5)CC4)cc(F)c3C2=O)C(=O)N1` (centres unmarked) [GT-05604, 3-(7-fluoro-5-((4-((4′-fluoro-[1,1′-biphenyl]-2-yl)methyl)piperazin-1-yl)methyl)-1-oxoisoindolin-2-yl)piperidine-2,6-dione], the “residual substrate protein level, GSPT1” value in test [1] was “A (A represents a residual substrate protein level of <50%)”. Further, in test [2], the “residual substrate protein level, IKZF3” value is “B (B represents a residual substrate protein level of >50%)”. Moreover, the IC50 in test [3] came to 720 nM. The “residual substrate protein level, IKZF1” value in test [4] is “B (B represents a residual substrate protein level of >50%)”.
Regarding `O=C1CCC(N2Cc3cc(CN4C5CC4CN(Cc4ccccc4-c4ccc(Cl)cc4)C5)ccc3C2=O)C(=O)N1` (centres unmarked) [GT-05607, 3-(5-((3-((4′-chloro-[1,1′-biphenyl]-2-yl)methyl)-3,6-diazabicyclo[3.1.1]heptan-6-yl)methyl)-1-oxoisoindolin-2-yl)piperidine-2,6-dione], the “residual substrate protein level, GSPT1” value in test [1] is “A (A represents a residual substrate protein level of <50%)”. Moreover, in test [2], the “residual substrate protein level, IKZF3” value is given as “B (B represents a residual substrate protein level of >50%)”. For the same molecule, in test [3], the IC50 was 1150 nM and 880 nM. Also, the “residual substrate protein level, IKZF1” value in test [4] is given as “B (B represents a residual substrate protein level of >50%)”.
Take `O=C1CCC(N2Cc3cc(CN4CC5(CCN(Cc6ccccc6-c6ccc(Cl)cc6)CC5)C4)ccc3C2=O)C(=O)N1` (centres unmarked) [GT-05612, 3-(5-((7-((4′-chloro-[1,1′-biphenyl]-2-yl)methyl)-2,7-diazaspiro[3.5]nonan-2-yl)methyl)-1-oxoisoindolin-2-yl)piperidine-2,6-dione]: in test [1], the “residual substrate protein level, GSPT1” value is recorded as “B (B represents a residual substrate protein level of >50%)”. Also, the “residual substrate protein level, IKZF3” value in test [2] is “A (A represents a residual substrate protein level of <50%)”. Moreover, in test [3], the IC50 was 650 nM. Moreover, the “residual substrate protein level, IKZF1” value in test [4] is on record as “A (A represents a residual substrate protein level of <50%)”.
As to `O=C1CCC(N2Cc3cc(CN4CC5CN(Cc6ccccc6-c6ccc(Cl)cc6)CC5C4)ccc3C2=O)C(=O)N1` (centres unmarked) [GT-05613, 3-(5-((5-((4′-chloro-[1,1′-biphenyl]-2-yl)methyl)hexahydropyrrolo[3,4-c]pyrrol-2(1H)-yl)methyl)-1-oxoisoindolin-2-yl)piperidine-2,6-dione], the “residual substrate protein level, GSPT1” value in test [1] was “B (B represents a residual substrate protein level of >50%)”. The “residual substrate protein level, IKZF3” value in test [2] was “A (A represents a residual substrate protein level of <50%)”. Further, in test [3], the 50% inhibitory concentration (IC50) stood at 590 nM. The “residual substrate protein level, IKZF1” value in test [4] is on record as “B (B represents a residual substrate protein level of >50%)”.
With `O=C1CCC(N2Cc3cc(C(=O)N4CC5CCC(C4)N5Cc4ccccc4-c4ccc(Cl)cc4)ccc3C2=O)C(=O)N1` (centres unmarked) [GT-05621, 3-(5-(8-((4′-chloro-[1,1′-biphenyl]-2-yl)methyl)-3,8-diazabicyclo[3.2.1]octane-3-carbonyl)-1-oxoisoindolin-2-yl)piperidine-2,6-dione], the “residual substrate protein level, GSPT1” value in test [1] was “A (A represents a residual substrate protein level of <50%)”. The “residual substrate protein level, IKZF3” value in test [2] is recorded as “B (B represents a residual substrate protein level of >50%)”. In test [3], this molecule returned a half-maximal inhibitory concentration (IC50) of 1100 nM. Besides, the “residual substrate protein level, IKZF1” value in test [4] is “B (B represents a residual substrate protein level of >50%)”.
For the molecule `O=C1CCC(N2Cc3cc(C(=O)N4CC5CCC4CN5Cc4ccccc4-c4ccc(Cl)cc4)ccc3C2=O)C(=O)N1` (centres unmarked) [GT-05622, 3-(5-(5-((4′-chloro-[1,1′-biphenyl]-2-yl)methyl)-2,5-diazabicyclo[2.2.2]octane-2-carbonyl)-1-oxoisoindolin-2-yl)piperidine-2,6-dione], in test [1], the “residual substrate protein level, GSPT1” value is recorded as “A (A represents a residual substrate protein level of <50%)”. For the same molecule, in test [2], the “residual substrate protein level, IKZF3” value was “B (B represents a residual substrate protein level of >50%)”. This molecule had an IC50 in test [3] of 910 nM. The “residual substrate protein level, IKZF1” value in test [4] was “B (B represents a residual substrate protein level of >50%)”.
In the case of `O=C1CCC(N2Cc3cc(CN4CCCN(C(=O)c5ccccc5-c5ccc(Cl)cc5)CC4)ccc3C2=O)C(=O)N1` (centres unmarked) [GT-05644, 3-(5-((4-(4′-chloro-[1,1′-biphenyl]-2-carbonyl)-1,4-diazepan-1-yl)methyl)-1-oxoisoindolin-2-yl)piperidine-2,6-dione], the “residual substrate protein level, GSPT1” value in test [1] is given as “A (A represents a residual substrate protein level of <50%)”. Also, the “residual substrate protein level, IKZF3” value in test [2] is listed as “B (B represents a residual substrate protein level of >50%)”. Further, the IC50 in test [3] came to 590 nM. Also, in test [4], the “residual substrate protein level, IKZF1” value is recorded as “B (B represents a residual substrate protein level of >50%)”.
As to `CC1(C)CCC(C(=O)N2CCC3(CC2)CN(C(=O)c2ccc4c(c2)CN(C2CCC(=O)NC2=O)C4=O)C3)=C(c2ccc(Cl)cc2)C1` (centres unmarked) [GT-05657, 3-(5-(7-(4′-chloro-5,5-dimethyl-3,4,5,6-tetrahydro-[1,1′-biphenyl]-2-carbonyl)-2,7-diazaspiro[3.5]nonane-2-carbonyl)-1-oxoisoindolin-2-yl)piperidine-2,6-dione], in test [1], the “residual substrate protein level, GSPT1” value is on record as “B (B represents a residual substrate protein level of >50%)”. For the same molecule, in test [2], the “residual substrate protein level, IKZF3” value was “B (B represents a residual substrate protein level of >50%)”. The same molecule showed an IC50 in test [3] of 1170 nM. Further, the “residual substrate protein level, IKZF1” value in test [4] was “B (B represents a residual substrate protein level of >50%)”.
As for `CC1(C)CCC(C(=O)N2CC3CN(Cc4ccc5c(c4)CN(C4CCC(=O)NC4=O)C5=O)CC3C2)=C(c2ccc(Cl)cc2)C1` (centres unmarked) [GT-05658, 3-(5-((5-(4′-chloro-5,5-dimethyl-3,4,5,6-tetrahydro-[1,1′-biphenyl]-2-carbonyl)hexahydropyrrolo[3,4-c]pyrrol-2(1H)-yl)methyl)-1-oxoisoindolin-2-yl)piperidine-2,6-dione], the “residual substrate protein level, GSPT1” value in test [1] is reported as “B (B represents a residual substrate protein level of >50%)”. The “residual substrate protein level, IKZF3” value in test [2] is given as “A (A represents a residual substrate protein level of <50%)”. Further, the half-inhibitory concentration (IC50) in test [3] stood at 740 nM. In addition, the “residual substrate protein level, IKZF1” value in test [4] is on record as “B (B represents a residual substrate protein level of >50%)”.
In the case of `CC1(C)CCC(C(=O)N2CC3CCC2CN3Cc2ccc3c(c2)CN(C2CCC(=O)NC2=O)C3=O)=C(c2ccc(Cl)cc2)C1` (centres unmarked) [GT-05662, 3-(5-((5-(4′-chloro-5,5-dimethyl-3,4,5,6-tetrahydro-[1,1′-biphenyl]-2-carbonyl)-2,5-diazabicyclo[2.2.2]octan-2-yl)methyl)-1-oxoisoindolin-2-yl)piperidine-2,6-dione], the “residual substrate protein level, GSPT1” value in test [1] is reported as “B (B represents a residual substrate protein level of >50%)”. In test [2], the “residual substrate protein level, IKZF3” value is “A (A represents a residual substrate protein level of <50%)”. Also, the IC50 in test [3] came out at 710 nM. Also, the “residual substrate protein level, IKZF1” value in test [4] is recorded as “B (B represents a residual substrate protein level of >50%)”.
Turning to `O=C1CCC(N2Cc3cc(CN4C5CC4CN(C(=O)c4ccccc4-c4ccc(Cl)cc4)C5)ccc3C2=O)C(=O)N1` (centres unmarked) [GT-05665, 3-(5-((3-(4′-chloro-[1,1′-biphenyl]-2-carbonyl)-3,6-diazabicyclo[3.1.1]heptan-6-yl)methyl)-1-oxoisoindolin-2-yl)piperidine-2,6-dione], the “residual substrate protein level, GSPT1” value in test [1] is on record as “A (A represents a residual substrate protein level of <50%)”. For the same molecule, in test [2], the “residual substrate protein level, IKZF3” value is “B (B represents a residual substrate protein level of >50%)”. Further, the half-inhibitory concentration (IC50) in test [3] turned out to be 600 nM. For the same molecule, in test [4], the “residual substrate protein level, IKZF1” value is listed as “B (B represents a residual substrate protein level of >50%)”.
For `CC1(C)CCC(CN2CC3(C2)CN(Cc2ccc4c(c2)CN(C2CCC(=O)NC2=O)C4=O)C3)=C(c2ccc(F)cc2)C1` (centres unmarked) [GT-05670, 3-(5-((6-((4′-fluoro-5,5-dimethyl-3,4,5,6-tetrahydro-[1,1′-biphenyl]-2-yl)methyl)-2,6-diazaspiro[3.3]heptan-2-yl)methyl)-1-oxoisoindolin-2-yl)piperidine-2,6-dione], the “residual substrate protein level, GSPT1” value in test [1] is given as “A (A represents a residual substrate protein level of <50%)”. For the same molecule, the “residual substrate protein level, IKZF3” value in test [2] is listed as “A (A represents a residual substrate protein level of <50%)”. This molecule showed a concentration for half-maximal inhibition (IC50) in test [3] of 620 nM. In addition, the “residual substrate protein level, IKZF1” value in test [4] is “A (A represents a residual substrate protein level of <50%)”.

What is called IC50 is the concentration that gives 50% inhibition. A high value points to a need for much substance.
